Results taken from publication PMC7534258, “Novel temporin L antimicrobial peptides: promoting self-assembling by lipidic tags to tackle superbugs” (Journal of Enzyme Inhibition and Medicinal Chemistry, 2020).
Where a SMILES comes first, the peptide text is derived from it. [ ]: non-standard residue; d: D form. The star is where a group is joined. Phe(4-NH2) = Nc1ccc(C[C@H](N)C(=O)O)cc1; Pentanoyl = CCCCC(=O)*

Tests used:
P. aeruginosa ATCC 27853 = assay: Broth microdilution MIC, reference strain; format: cell-based, Pseudomonas aeruginosa
Protocol: (§1) Staphylococcus aureus ATCC 25923, Pseudomonas aeruginosa ATCC 27853 and Klebsiella pneumoniae ATCC BAA-1705 (carbapenemase producer) were obtained from the American Type Culture Collection (Rockville, MD).
(§2) Identification was performed by sub-culturing on Tryptic Soy Agar (TSA, Becton Dickinson) and by biochemical characterisation using the Vitek II system (Biomerieux). The antimicrobial susceptibility testing of all isolates was determined using Vitek II system and results were interpreted according to European Committee on Antimicrobial Susceptibility Testing (EUCAST version 9.0, 2019). P. aeruginosa was cultured in Brain Heart Infusion broth (BHI, OXOID), S. aureus and K. pneumoniae were cultured in Tryptic Soya broth (TSB, OXOID), under aerobic conditions at 37 °C, for 24 h on an orbital shaker at 200 rpm.
(§3) Minimal inhibitory concentrations (MIC) of all the peptides were determined in Mueller–Hinton medium by the broth microdilution assay, following the procedure already described[22]^,[34]. The compounds were added to bacterial suspension in each well yielding a final cell concentration of 1 × 10^6 CFU/ml and a final compound concentration ranging from 0.78 to 100 µM. Negative control wells were set to contain bacteria in Mueller–Hinton broth plus the amount of vehicle (ethanol) used to dilute each compound. Positive controls included vancomycin (2 µg/ml), tobramycin (4 µg/ml), gentamycin (4 µg/ml), and imipenem (8 µg/ml).

[1] = test system: K. pneumoniae ATCC BAA-1705; assay: Broth microdilution MIC, reference strain; format: cell-based, Klebsiella pneumoniae
Protocol: as §1, §2, §3

S. aureus ATCC 25923 = assay: microbe, parasite or virus in culture; settings: ATCC 25923
Protocol: as §1, §2, §3

KpCR1 = assay: microbe, parasite or virus in culture; settings: carbapenem-resistant clinical isolate
Protocol: (§4) Clinical strains of P. aeruginosa (Pa1, Pa2 and Pa3), K. pneumoniae (KpCR1, KpCR2 and KpCR3), and S. aureus (Sa1, Sa2 and Sa3) were isolated from bloodstream or pulmonary infections, and belong to a collection of bacterial strains established between 2010 and 2018 at the Department of Molecular Medicine and Medical Biotechnologies (University Federico II, Naples) for research use.
as §2, §3

KpCR2 = assay: microbe, parasite or virus in culture; settings: carbapenem-resistant clinical isolate
Protocol: as §4, §2, §3

KpCR3 = assay: microbe, parasite or virus in culture; settings: carbapenem-resistant clinical isolate
Protocol: as §4, §2, §3

Pa1 = assay: microbe, parasite or virus in culture; settings: multidrug resistant clinical isolate
Protocol: as §4, §2, §3

Pa2 = assay: microbe, parasite or virus in culture; settings: multidrug resistant clinical isolate
Protocol: as §4, §2, §3

Pa3 = assay: microbe, parasite or virus in culture; settings: multidrug resistant clinical isolate
Protocol: as §4, §2, §3

Sa1 = assay: microbe, parasite or virus in culture
Protocol: as §4, §2, §3

Sa2 = assay: microbe, parasite or virus in culture
Protocol: as §4, §2, §3

Sa3 = assay: microbe, parasite or virus in culture; settings: 24 h
Protocol: as §4, §2, §3

ANTS/DPX leakage assay = settings: ANTS/DPX-loaded LUVs, Gram-positive and Gram-negative mimicking
Protocol: Large unilamellar vesicles (LUVs) and small unilamellar vesicles (SUVs) consisting of DOPG/CL (58/42 ratio in moles) and DOPG/DOPE/CL (63/23/12 ratio in moles), mimic the Gram-positive membrane and Gram-negative membrane, respectively. LUVs were prepared using the extrusion method as previously described. In particular, first lipid films were prepared by dissolving an appropriate amount of lipids in chloroform and fluorescent probes were added when necessary, then dried under a nitrogen gas stream and freeze-dried overnight. In all experiments, we used a final lipid concentration of 0.1 mM. For fluorescence experiments, buffer was added to dry lipid films and vortexed for 1 h; then the lipid suspension was freeze-thawed 6 times and extruded 10 times through polycarbonate membranes with 0.1 µm diameter pores to obtain LUVs. For circular dichroism measurements, peptide samples in SUVs were prepared as reported in the following protocol. Lipids were dissolved in chloroform and added to an equal volume of peptide solution dissolved in TFE containing appropriate peptide concentration. The samples were vortexed and lyophilised overnight. The dry samples were rehydrated with phosphate buffer 5 mM, pH 7.4 for 1 h and sonicated for 30 min.
The ANTS/DPX leakage assay was used to measure the ability of peptide to permeabilise and induce leakage of encapsulated dyes. After lipid films were prepared as previously described, ANTS (12.5 mM) and DPX (45 mM) were dissolved in 2 ml water, were added to lipid films and then lyophilised overnight. The lipid films with encapsulated ANTS and DPX were hydrated with PBS 1X buffer, vortexed for 1 h and then treated to obtain LUVs. The non-encapsulated ANTS and DPX were removed by gel filtration using a Sephadex G-50 column (1.5 cm × 10 cm) at room temperature. To start up the leakage experiment, a 2 mM peptide stock solution was prepared and LUVs were titrated with the peptide. Samples were excited at 385 nm (slit width, 5 nm) and fluorescence emission was recorded at 512 nm (slit width, 5 nm). After the addition of peptide, we evaluated leakage of encapsulated ANTS through a change in fluorescence spectra of ANTS and DPX. In particular, leakage is associated to an increase in ANTS fluorescence at 512 nm. Complete release of ANTS was obtained by using 0.1% Triton X, which caused the total destruction of liposomes. The percentage of leakage was calculated as % leakage =(Fi−F0)/(Ft−F0), where F0 represents the fluorescence of intact LUVs before the addition of peptide, and Fi and Ft denote the intensities of the fluorescence achieved after peptide and Triton-X treatment, respectively.

[2] = 100% growth inhibition after 16–18 h at 37 °C

CCCCC(=O)Nc1ccc(C[C@H](N)C(=O)N[C@H](C(=O)N2CCC[C@H]2C(=O)N[C@@H](Cc2c[nH]c3ccccc23)C(=O)N[C@@H](Cc2ccccc2)C(=O)N[C@@H](CO)C(=O)N[C@@H](CCCCN)C(=O)N[C@@H](Cc2ccccc2)C(=O)N[C@H](CC(C)C)C(=O)N[C@H](CCCCN)C(=O)N[C@@H](CCCNC(=N)N)C(=O)N[C@H](C(=O)N[C@@H](CC(C)C)C(N)=O)[C@@H](C)CC)C(C)C)cc1 [C, H-Phe(4-NHCO(CH2)3CH3)-Val-Pro-Trp-Phe-Ser-Lys-Phe-DLeu-DLys-Arg-Ile- Leu-NH2] (H-[Phe(4-NH2)](Pentanoyl)VPWFSKF[dL][dK]RIL-NH2)
Antimicrobial activity (MIC) P. aeruginosa ATCC 27853 (P. aeruginosa ATCC 27853; ATCC 27853): 25 µM
Antimicrobial activity (MIC) K. pneumoniae ATCC BAA-1705 ([1]; ATCC BAA-1705): 6.25 µM
Antimicrobial activity (MIC) S. aureus ATCC 25923 (S. aureus ATCC 25923): 6.25 µM
Antimicrobial activity (MIC) KpCR1 (KpCR1): 12.5 µM
Antimicrobial activity (MIC) KpCR2 (KpCR2): 12.5 µM
Antimicrobial activity (MIC) KpCR3 (KpCR3): 12.5 µM
Antimicrobial activity (MIC) Pa1 (Pa1): 25 µM
Antimicrobial activity (MIC) Pa2 (Pa2): 25 µM
Antimicrobial activity (MIC) Pa3 (Pa3): 25 µM
Antimicrobial activity (MIC) Sa1 (Sa1; 24 h): 12.5 µM
Antimicrobial activity (MIC) Sa2 (Sa2; 24 h): 12.5 µM
Antimicrobial activity (MIC) Sa3 (Sa3): 12.5 µM
membrane leakage ability (in words) (ANTS/DPX leakage assay): intermediate ability to produce leakage

CC[C@H](C)[C@H](NC(=O)[C@H](CCCNC(=N)N)NC(=O)[C@@H](CCCCN)NC(=O)[C@@H](CC(C)C)NC(=O)[C@H](Cc1ccccc1)NC(=O)[C@H](CCCCN)NC(=O)[C@H](CO)NC(=O)[C@H](Cc1ccccc1)NC(=O)[C@H](Cc1c[nH]c2ccccc12)NC(=O)[C@@H]1CCCN1C(=O)[C@@H](NC(=O)[C@@H](N)Cc1ccccc1)C(C)C)C(=O)N[C@@H](CC(C)C)C(N)=O [Compound 1B, H-Phe-Val-Pro-Trp-Phe-Ser-Lys-Phe-DLeu-DLys-Arg-Ile-Leu-NH2] (H-FVPWFSKF[dL][dK]RIL-NH2)
Antimicrobial activity (MIC) P. aeruginosa ATCC 27853 (P. aeruginosa ATCC 27853; [2]): 12.5 µM
Antimicrobial activity (MIC) K. pneumoniae ATCC BAA-1705 [1, 2]: 12.5 µM
Antimicrobial activity (MIC) S. aureus ATCC 25923 (S. aureus ATCC 25923): 6.25 µM
Antimicrobial activity (MIC) KpCR1 (KpCR1): 12.5 µM
Antimicrobial activity (MIC) KpCR2 (KpCR2): 12.5 µM
Antimicrobial activity (MIC) KpCR3 (KpCR3): 12.5 µM
Antimicrobial activity (MIC) Pa1 (Pa1): 12.5 µM
Antimicrobial activity (MIC) Pa2 (Pa2): 12.5 µM
Antimicrobial activity (MIC) Pa3 (Pa3): 12.5 µM
Antimicrobial activity (MIC) Sa1 (Sa1; MRSA clinical isolate): 12.5 µM
Antimicrobial activity (MIC) Sa2 (Sa2; MRSA clinical isolate): 12.5 µM
Antimicrobial activity (MIC) Sa3 (Sa3): 6.25 µM
membrane leakage ability (in words) (ANTS/DPX leakage assay): lowest leakage ability
